Consider 82 compounds from ChEMBL document CHEMBL3988442, “University of Dundee, Small-Polar-MMV Screening Library” (2021).

Molecules are shown by their SMILES.

Test [1] in a line: microbe, parasite or virus in culture. To be noted: Mycobacterium tuberculosis, 96 h, read-out: pIC50 (converted).
A short description of test [2]: microbe, parasite or virus in culture. To be noted: Mycobacterium tuberculosis, 72 h, read-out: pIC50 (converted).

For the compound `Cc1ccc(S(=O)(=O)NCCN)cc1C(F)(F)F`, the IC50 was more than 501 µM in test [1] and 102 µM in test [2].
`O=C(NCCc1cccnc1)c1cc(C2CC2)on1`: the IC50 in test [1] and in test [2] was more than 501 µM throughout.
As for `c1ccc(OCCCOC2CNC2)cc1`, the IC50 in test [1] is more than 501 µM; in test [2] it was 177 µM.
In the case of `OCCOCCN1CCC(=Cc2ccccc2)CC1`, the IC50 in test [1] is 242 µM; in test [2], 203 µM.
Turning to `CCc1ccc(CN2CCN(C(=O)N(C)C)CC2)o1`, the values for the IC50 in test [1] and in test [2] were more than 501 µM and 206 µM, respectively.
Turning to `Cc1cccc(N2CCCC(N)C2)n1` (centres undefined), the results for the IC50 in test [1] and in test [2] were 150 µM and 119 µM, respectively.
`Cc1cc(C(=O)NCc2ccc(F)cc2)[nH]n1`: the IC50 in test [1] is 132 µM; in test [2], 28 µM.
Turning to `CS(=O)(=O)N1CCc2[nH]cnc2C12CCN(C(=O)c1ccccc1)CC2`, the IC50 in test [1] and in test [2] was more than 50.1 µM in each case.
As to `NCc1cc(Oc2cccc(F)c2)ccn1`, the results for the IC50 in test [1] and in test [2] were more than 501 µM and 45.4 µM, respectively.
With `O=C(c1ccc(F)cc1)N1C[C@H]2CCC[C@@]2(COCc2ccncc2)C1`, the IC50 in test [1] and in test [2] was more than 50.1 µM each time.
As to `OC(CN1CCn2ccnc2C1)c1ccc(F)cc1` (centres undefined), the IC50 was more than 501 µM in test [1] and 173 µM in test [2].
For the compound `CCN(CC)S(=O)(=O)c1ccc(CNC(=O)c2cc(C)on2)cc1`, the IC50 in test [1] was 26.2 µM; in test [2], more than 50.1 µM.
In the case of `CSC1=Nc2c(cnn2-c2ccc(C)cc2)C2=NCCCN12`, the IC50 was more than 50.1 µM in test [1] and 0.957 µM in test [2].
The like results for `Nc1cc(-c2ccc(I)cc2)nn1CCO` were, in that order, more than 501 µM and more than 501 µM.
As to `O=C(c1cccc2cc[nH]c12)N1CCSCC1`, the IC50 in test [1] and in test [2] was more than 501 µM throughout.
Regarding `CC(=O)NCc1ccc(C(=O)CSc2ccccn2)s1`, the IC50 in test [1] and in test [2] was more than 501 µM in each case.
On to `O=C(Oc1nsnc1N1CCCCC1)N1CCOCC1`, for which the figures for the IC50 in test [1] and in test [2] were 432 µM and 168 µM, respectively.
Take `O=C(CCn1cc(Br)cn1)NCc1cccs1`: the IC50 was 109 µM in test [1] and 102 µM in test [2].
Regarding `CNC(=O)[C@@H](C)NC(=O)c1ccc(-c2ccc(C)o2)s1`, the IC50 in test [1] is 278 µM; in test [2], 297 µM.
Regarding `Cc1cnn(CC2CN(Cc3nc4ccccc4s3)CCO2)c1` (centres undefined), the IC50 was 14.7 µM in test [1] and 34.7 µM in test [2].
For `CCc1nc(CN(C)Cc2nnc(-c3cccs3)o2)cs1` the same measures were 8.56 µM and 12.2 µM.
Consider `CC(C)c1cc(C(=O)N2CCN(Cc3ccsc3)CC2)n[nH]1`, for which the values for the IC50 in test [1] and in test [2] were 39.7 µM and 28.4 µM, respectively.
On to `OC1CCN(Cc2ccc3c(c2)CCC3)C1` (centres undefined), for which the IC50 in test [1] was more than 501 µM; in test [2] it was 213 µM.
In the case of `COC(=O)CCCNc1ccc2c(c1)OCCO2`, the figures for the IC50 in test [1] and in test [2] were 467 µM and 140 µM, respectively.
For the compound `CN(Cc1cnn(C)c1)C(=O)c1cc(Br)c[nH]1`, the IC50 is more than 501 µM in test [1] and 95.2 µM in test [2].
For the compound `CN(C(=O)c1ccccc1)S(=O)(=O)c1ccccc1`, the values for the IC50 in test [1] and in test [2] were 303 µM and 280 µM, respectively.
As to `COCCC(C)NC(=O)Nc1ccc(C#N)cc1` (centres undefined), the IC50 in test [1] is 159 µM; in test [2], 232 µM.
For `COc1ccc(-c2ccccc2CCN)c(OC)c1`, the IC50 was 41.6 µM in test [1] and 48.2 µM in test [2].
Consider `CC(=O)c1c(F)cccc1N1CCOCC1`, for which the IC50 in test [1] and in test [2] was more than 501 µM in each case.
Consider `O=C(c1cccs1)N1CCC2(CC1)CN(c1ccsc1)C(=O)CO2`, for which the IC50 in test [1] and in test [2] was more than 50.1 µM in each case.
On to `O=C(c1cc(C2CC2)on1)N1CCC2(CCOCC2)C1`, for which the IC50 was 25.4 µM in test [1] and 20.5 µM in test [2].
Regarding `N#Cc1ccc(OCCCN2CCNC(=O)C2)cc1`, the results for the IC50 in test [1] and in test [2] were 290 µM and 233 µM, respectively.
`Fc1cc(Cl)cnc1N1CCCNCC1`: the IC50 in test [1] is more than 501 µM; in test [2] it was 34.3 µM.
`COc1ccc(CCN)c(Cl)c1OC`: the IC50 is more than 501 µM in test [1] and 265 µM in test [2].
For `O=C1CCCCN1Cn1cc(I)cn1` the same measures were 318 µM and 251 µM.
Consider `CC(=O)c1cc(C(=O)NCCSC(F)(F)F)[nH]n1`, for which the IC50 was 79.5 µM in test [1] and 274 µM in test [2].
`Fc1ccccc1-c1nc(CNCCn2cccn2)cs1`: the IC50 in test [1] and in test [2] was more than 50.1 µM throughout.
Consider `Cc1cccc(OCC(O)CN)c1` (centres undefined), for which the IC50 was 345 µM in test [1] and 179 µM in test [2].
The like results for `NS(=O)(=O)c1ccc(NC(=O)Cn2ccnc2)cc1` were, in that order, more than 501 µM and more than 501 µM.
Turning to `Nc1ncnc2[nH]c(N3CCCCC3)nc12`, the IC50 in test [1] and in test [2] was more than 50.1 µM each time.
As for `COc1ccc(Nc2ncccc2S(N)(=O)=O)cc1`, the IC50 in test [1] and in test [2] was more than 501 µM throughout.
On to `O=C(c1cc(Br)c[nH]1)N1CCN2CCCCC2C1` (centres undefined), for which the IC50 in test [1] is more than 501 µM; in test [2], 232 µM.
Regarding `CC(C)n1cnc(C2CN(C)c3ccc(C(=O)NCC4CC4)cc32)n1` (centres undefined), the IC50 in test [1] and in test [2] was more than 50.1 µM each time.
As for `CCn1nc(C)c2nc(C)nc(NCCc3ccccc3)c21`, the IC50 is more than 50.1 µM in test [1] and 32.5 µM in test [2].
As to `Cc1nc(N(C)C/C=C/c2ccccc2)c2cnn(C)c2n1`, the IC50 in test [1] and in test [2] was more than 50.1 µM each time.
`N#Cc1ccc(S(=O)(=O)NCCN)cc1C(F)(F)F`: the IC50 in test [1] is 223 µM; in test [2], 160 µM.
`C=Cc1ccc(CN2C(=O)C3(CCNCC3)Nc3ccccc32)cc1`: the results for the IC50 in test [1] and in test [2] were 26.5 µM and 28.2 µM, respectively.
Take `CCc1ccc(CN(CCCn2ccnc2)Cc2ccc(C)s2)o1`: the IC50 in test [1] was 36.8 µM; in test [2] it was 37.5 µM.
The like results for `CC(C)c1cc(N)[nH]n1` were, in that order, more than 501 µM and more than 501 µM.
Turning to `NC(=O)CC1CCCC1`, the IC50 in test [1] and in test [2] was more than 501 µM in each case.
For `CC(C)C(C)N(C)Cc1nnc(-c2ccco2)o1` (centres undefined), the IC50 was more than 50.1 µM in test [1] and 1.38 µM in test [2].
Consider `CCC(C(=O)Nc1cc2c(cc1C)OCO2)N(C)C` (centres undefined), for which the IC50 in test [1] and in test [2] was more than 501 µM throughout.
For `O=C(NCc1n[nH]c2c1CCCCC2)c1cnn2c1CCCC2`, the IC50 in test [1] and in test [2] was more than 50.1 µM throughout.
Take `CN(CC1(C)COC1)C(=O)c1cc(-c2cnn(C)c2)nc2ccccc12`: the IC50 in test [1] and in test [2] was more than 50.1 µM each time.
On to `COc1ccccc1OCC(C)CN` (centres undefined), for which the IC50 was 123 µM in test [1] and 82.9 µM in test [2].
As for `O=C(CN(C1=NCCCCC1)c1ccc(Cl)cc1)c1ccccc1`, the IC50 was 22.8 µM in test [1] and 20.7 µM in test [2].
With `O=C(c1cccs1)N1CC(Oc2ccccc2Cl)C1`, the IC50 in test [1] was 42.8 µM; in test [2], 26.7 µM.
As to `Cc1ccc(-c2noc(CNS(C)(=O)=O)n2)cc1`, the IC50 in test [1] was more than 501 µM; in test [2], 248 µM.
With `COc1cccc(S(=O)(=O)CCN2CCN(C)CC2)c1`, the IC50 in test [1] and in test [2] was more than 501 µM throughout.
For `N#Cc1cccnc1N1CCOC(c2nccs2)C1` (centres undefined), the results for the IC50 in test [1] and in test [2] were more than 501 µM and 138 µM, respectively.
`CC(C)OCCn1nnnc1Cc1ccc(Br)cc1`: the figures for the IC50 in test [1] and in test [2] were 14.5 µM and 35.5 µM, respectively.
For `c1cc2c(cc1CNc1nnc(C3CC3)o1)OCCO2`, the IC50 in test [1] is 179 µM; in test [2], 151 µM.
The like results for `CCN(CC)CCS(=O)(=O)c1ccccc1` were, in that order, more than 501 µM and 300 µM.
Take `Cc1c(CN2CCSCC2)cccc1NS(C)(=O)=O`: the IC50 in test [1] and in test [2] was more than 501 µM throughout.
Turning to `O=C(NCCn1cccc1)c1[nH]nc2c1CCCC2`, the IC50 is more than 501 µM in test [1] and 248 µM in test [2].
The like results for `NC1CCN(c2ncccc2F)C1` (centres undefined) were, in that order, more than 501 µM and 462 µM.
In the case of `CC1CCN(C(CN)c2cccs2)CC1` (centres undefined), the IC50 was 263 µM in test [1] and 217 µM in test [2].
`Cc1nc(-c2cccc(C(=O)O)c2)cc(C2CCN(C(C)C)C2)n1` (centres undefined): the IC50 in test [1] and in test [2] was more than 50.1 µM throughout.
`COc1cccc(C2=NN=C(NC3CC3)SC2)c1`: the values for the IC50 in test [1] and in test [2] were 111 µM and 97.4 µM, respectively.
In the case of `COc1cccc(-c2ccc(CNS(N)(=O)=O)cc2)c1`, the IC50 in test [1] is 283 µM; in test [2], 159 µM.
For `Nc1nccnc1C(=O)NCc1ccccc1` the same measures were more than 501 µM and 294 µM.
As to `c1cnnc(N2CCCC2CNCc2nc3ccccc3o2)c1` (centres undefined), the IC50 in test [1] was 32.7 µM; in test [2] it was 29.6 µM.
In the case of `Cn1cnc2c1CCN(c1ccnc(-c3ccccc3)n1)C2`, the IC50 was 38.1 µM in test [1] and 15.6 µM in test [2].
For `CCC1(CC)CCCN(C(=O)CS(=O)(=O)CC)CC1`, the IC50 in test [1] is 50.9 µM; in test [2], 72.7 µM.
With `CCCc1nc2c(c(C)c(C)n2Cc2ccncc2)c(N)c1CC`, the IC50 in test [1] and in test [2] was more than 50.1 µM in each case.
Consider `CCn1c(C(=O)N2CCOCC2C)cc2ccccc21` (centres undefined), for which the values for the IC50 in test [1] and in test [2] were 303 µM and 191 µM, respectively.
On to `c1csc(CCNc2nc(-c3ccncc3)nc3c2CCNCC3)c1`, for which the values for the IC50 in test [1] and in test [2] were 21.7 µM and 46.2 µM, respectively.
For `CCc1nc(CNc2ccc(F)cc2I)no1` the same measures were 2.44 µM and 3.04 µM.
Regarding `COc1ccccc1NC(=O)c1ccc(C)nc1`, the IC50 in test [1] and in test [2] was more than 501 µM in each case.
For the compound `Fc1ccc(N2CCCN(c3ccc(Cn4ccnc4)cn3)CC2)cc1`, the IC50 in test [1] is 43.5 µM; in test [2] it was 29.6 µM.
Turning to `CC1(c2ncc(CN3CCN(c4ncccn4)CC3)cn2)CCCCO1` (centres undefined), the IC50 in test [1] and in test [2] was more than 50.1 µM each time.
Regarding `COc1ccc(NC(=O)COc2ccccc2F)cn1`, the IC50 was more than 501 µM in test [1] and 213 µM in test [2].
